Experimental data published in US8486996B2, “Aroylfuranes and aroylthiophenes” (Basilea Pharmaceutica AG, priority 2006, dated 2013).
Read-outs that look alike come from different tables or passages of the source.

Experiments:
Format in all cases: cell-based
[1] = Hoechst 33342 nuclear staining (48 h read-out)
Description: (§1) A) Hoechst 33342 Nuclear Staining
(§2) This assay is performed in 96 well tissue culture plates. Appropriate number of cells (adherent cells: 3-5*10^3, suspension cells: 8-10*10^3) are being seeded out in 80 μl complete medium. Adherent cells are incubated for 24 h for proper spreading out before addition of test compounds while suspension cells are immediately treated with test compounds after seeding out. The test compounds are added in 20 μl complete medium containing max 5% DMSO. The final compound concentrations in the assays are in the range of 0.001 μM-10 μM. After 24 h or 48 h incubation at culture conditions, 10 μl medium containing Hoechst 33342 dye (Sigma B-2261) at 2-5 μg/ml are added to each well. The assay plates are then further incubated for 30 minutes and subsequently analyzed with a standard inverted fluorescence microscope.
(§3) The readout allows the determination of the fraction of apoptotic nuclei as well as other morphological criteria specific for apoptosis as a function of the treatment. The scores A, B, C and D are explained at the end of the Table.

tumor cells [2] = assay: Hoechst 33342 nuclear staining (48 h read-out)
Description: as §1, §2, §3

[3] = MTS proliferation assay (72 h read-out); conditions: MRC5 cells
Description: (§4) B) MTS Proliferation Assay
(§5) The assay is performed in 96 well tissue culture plates. The cells (range: 1.5*10^3-10^4) are seeded out in 80 μl complete medium 24 h prior to compound treatment. The test compounds are added in 20 μl complete medium containing max 5% DMSO. The final compound concentrations in the assays are in the range of 0.001 μM-10 μM. The assay plates are incubated for 72 h at culture conditions. The MTS reagent is prepared according to the manufacturer's protocol (Promega G1111). 20 μl MTS reagent are added to each well; the assay plates are quickly spun and incubated for another 3 h at culture conditions. Subsequently, the plates are shortly shaked and absorption measured with a microplate-reader at 492 nm. The scores A, B, C and D are explained at the end of the Table.

tumor cells [4] = assay: MTS proliferation assay (72 h read-out)
Description: as §4, §5

[5] = Mitochondrial membrane potential, JC-1 (read-out 48 h); conditions: PBL, JC-1, 48 h
Description: (§6) D) Mitochondrial Membrane Potential
as §2, with “The final compound concentrations in the assays are in the range of 0.001 μM-10 μM.” left out, “JC-1 (Molecular Probes, T-3168)” for “Hoechst 33342 dye (Sigma B-2261)”, “microscope by using the FITC and TRITC filters.” for “microscope.”
(§7) The readout allows the determination of the fraction of cells which show a dissipation of the mitochondrial membrane potential strongly indicating an apoptotic cell death as a function of the treatment. The scores A, B, C and D are explained at the end of the Table.

tumor cells [6] = assay: as above; conditions: JC-1, 48 h
Description: as §6
as §2, with “The final compound concentrations in the assays are in the range of 0.001 μM-10 μM.” left out, “JC-1 (Molecular Probes, T-3168)” for “Hoechst 33342 dye (Sigma B-2261)”, “microscope by using the FITC and TRITC filters.” for “microscope.”
as §7

[7] = MRC5 cells, read-out: Hoechst 33342 nuclear staining EC50, MRC5
[8] = PBL, read-out: Hoechst 33342 nuclear staining EC50, PBL
[9] = HeLa cells, read-out: Hoechst 33342 nuclear staining EC50, HeLa
[10] = Jily cells, read-out: Hoechst 33342 nuclear staining EC50, Jily
[11] = Jurkat cells, read-out: Hoechst 33342 nuclear staining EC50, Jurkat
[12] = HT1080 cells, read-out: MTS proliferation assay IC50, HT1080
[13] = HeLa cells, read-out: MTS proliferation assay IC50, HeLa
[14] = Jily cells, read-out: MTS proliferation assay IC50, Jily
[15] = Jurkat cells, read-out: MTS proliferation assay IC50, Jurkat
[16] = HeLa cells, read-out: Mitochondrial membrane potential (read-out 48 h) HeLa
[17] = Jily cells, read-out: Mitochondrial membrane potential (read-out 48 h) Jily
[18] = Jurkat cells, read-out: Mitochondrial membrane potential (read-out 48 h) Jurkat
[19] = MCF7 cells, read-out: Mitochondrial membrane potential (read-out 48 h) MCF7

SMILES	EC50 [1, 7] [nM]	EC50 [1, 8] [nM]	EC50 (tumor cells [2]; [9]) [nM]	EC50 (tumor cells [2]; [10]) [nM]	EC50 (tumor cells [2]; [11]) [nM]	IC50 [3] [nM]	IC50 (tumor cells [4]; [12]) [nM]	IC50 (tumor cells [4]; [13]) [nM]	IC50 (tumor cells [4]; [14]) [nM]	IC50 (tumor cells [4]; [15]) [nM]	EC50 [5] [nM]	EC50 (tumor cells [6]; [16]) [nM]	EC50 (tumor cells [6]; [17]) [nM]	EC50 (tumor cells [6]; [18]) [nM]	EC50 (tumor cells [6]; [19]) [nM]	further results
COc1ccc2oc(C(=O)c3cc(F)ccc3N3CCCCC3C)cc2c1 (stereo not shown) [Example 97]	> 1000	> 1000	> 1000	> 1000	> 1000	100 to 1000	100 to 1000	> 1000	100 to 1000	100 to 1000	> 1000	> 1000	> 1000	> 1000	> 1000	
COc1ccc2oc(C(=O)c3cc(F)ccc3N3CCN(C)CC3)cc2c1 [Example 94]	> 1000	> 1000	> 1000	> 1000	100 to 1000	100 to 1000	100 to 1000	100 to 1000	100 to 1000	100 to 1000	> 1000	> 1000	100 to 1000	100 to 1000	> 1000	
Nc1c(C(=O)c2cccnc2N2CCCC2)oc2ccc(Cl)cc12 [Example 79]	> 1000	> 1000	> 1000	> 1000	100 to 1000	> 1000	100 to 1000	100 to 1000	100 to 1000	100 to 1000	> 1000	> 1000	100 to 1000	100 to 1000	> 1000	
CCOc1ccccc1C(=O)c1oc2ccc(N)cc2c1N [Example 52]	> 1000	> 1000	> 1000	100 to 1000	100 to 1000	> 1000	> 1000	> 1000	100 to 1000		> 1000	> 1000	100 to 1000	100 to 1000	> 1000	
Nc1c(C(=O)c2cccnc2N2CCC(O)CC2)oc2ccc(Cl)cc12 [Example 86]	> 1000	> 1000	> 1000	> 1000	> 1000	> 1000	> 1000	> 1000	100 to 1000	100 to 1000	> 1000	> 1000	> 1000	> 1000	> 1000	
CCOc1ccc(S(=O)(=O)N(C)C)cc1C(=O)c1oc2ccc(Cl)cc2c1N [Example 46]	> 1000	> 1000	> 1000	> 1000	> 1000	> 1000	> 1000	> 1000	> 1000	> 1000	> 1000	> 1000	> 1000	> 1000	> 1000	
COc1ccc(OC)c(C(=O)c2oc3ccc(Cl)cc3c2O)c1 [Ref C, reference compound]	> 1000	> 1000	> 1000	> 1000	> 1000	> 1000	> 1000	> 1000	> 1000	> 1000	> 1000	> 1000	> 1000	> 1000	> 1000	
CCOc1ccc(F)cc1C(=O)c1sc2ncccc2c1N [Example 113, 3-Amino-2-(2′-ethoxy-5-fluorobenzoyl)-thieno[2,3-b]pyridine]		> 1000		100 to 1000					100 to 1000		> 1000		100 to 1000			EC50 ([1]; Homo sapiens, MRC5 cells, read-out: Hoechst 33342 nuclear staining EC50, MRC5): > 1000 nM; EC50 (tumor cells [2]; Homo sapiens, HeLa cells, read-out: Hoechst 33342 nuclear staining EC50, HeLa): 100 to 1000 nM; EC50 (tumor cells [2]; Homo sapiens, Jurkat cells, read-out: Hoechst 33342 nuclear staining EC50, Jurkat): 100 to 1000 nM; IC50 ([3]; Homo sapiens): > 1000 nM; IC50 (tumor cells [4]; Homo sapiens, HT-1080, HT1080 cells, read-out: MTS proliferation assay IC50, HT1080): > 1000 nM; IC50 (tumor cells [4]; Homo sapiens, HeLa cells, read-out: MTS proliferation assay IC50, HeLa): 100 to 1000 nM; IC50 (tumor cells [4]; Homo sapiens, Jurkat cells, read-out: MTS proliferation assay IC50, Jurkat): 100 to 1000 nM; EC50 (tumor cells [6]; Homo sapiens, HeLa cells, read-out: Mitochondrial membrane potential (read-out 48 h) HeLa): > 1000 nM; EC50 (tumor cells [6]; Homo sapiens, Jurkat cells, read-out: Mitochondrial membrane potential (read-out 48 h) Jurkat): 100 to 1000 nM; EC50 (tumor cells [6]; Homo sapiens, MCF7 cells, read-out: Mitochondrial membrane potential (read-out 48 h) MCF7): > 1000 nM
CCOc1ccc(F)cc1C(=O)c1cc2cc(CN(CC)CC)ccc2o1 [Example 74]	> 1000	> 1000	> 1000	> 1000	> 1000	> 1000	> 1000	> 1000	> 1000		> 1000	> 1000	> 1000	> 1000	> 1000	
O=C(c1cc2cc(O)ccc2o1)c1cc(F)ccc1N1CCOCC1 [Example 107]	100 to 1000	> 1000	100 to 1000	100 to 1000	100 to 1000	10 to 100	10 to 100	10 to 100	10 to 100	10 to 100	> 1000	100 to 1000	10 to 100	10 to 100	100 to 1000	
